Measurements as given in patent publication US8796253B2, “Heteroaryl substituted pyrazole derivatives useful for treating hyper-proliferative disorders and diseases associated with angiogenesis” (Bayer Intellectual Property GmbH, priority 2007, dated 2014).

tested on: HCT-116 cells stably transfected with a Luciferase reporter gene under the control of HIF-responsive element; assay: HIF-Luciferase Assay; format: cell-based; settings: Homo sapiens, HCT-116, HIF-Luciferase Assay, HCT-116 reporter cells, overnight at 1% oxygen; group >10, unit inferred
Experimental: HCT-116 cells stably transfected with a Luciferase reporter gene under the control of HIF-responsive element were plated in white 96- or 384-well plates at 30,000 or 5,000 cells/well, respectively, in 50 μL/well media (RPMI with 10% fetal bovine serum and 100 μg/mL Hygromycin). Cells were incubated overnight at 37° C. in a humidified incubator containing 5% CO2 under normal oxygen. The next day test compounds were added to the wells at various concentrations (0-10 μM, 0.1% final DMSO concentration) and placed in a hypoxic chamber overnight at 1% oxygen. Following the exposure to hypoxic conditions, 50 μL/well of Bright Glo reagent (Promega, Wisconsin, USA) was added to the wells and luminescence was measured after 5 min. Cells incubated under normal oxygen levels were used as background control. […] Compounds that have IC50 values between 1 μM and 10 μM include those of Examples 8, 16, 38, 39, 40, 41, 42, 43, 47, 48, 53, 54, 56, 57, 66, 69, and 72.

| IC50 [nM] | SMILES |
| --- | --- |
| > 10000 | Cc1ccc(Cn2nc(C3=NC(C(C)C)CO3)cc2C)cc1 (stereo not drawn) [Example 71, 4-isopropyl-2-[5-methyl-1-(4-methylbenzyl)-1H-pyrazol-3-yl]-4,5-dihydro-1,3-oxazole] |
| > 10000 | Cc1ccc(Cn2nc(-c3nc4ccc(N5CCN(C)CC5)cc4[nH]3)cc2C)cc1 [Example 50, 2-[5-methyl-1-(4-methylbenzyl)-1H-pyrazol-3-yl]-6-(4-methylpiperazin-1-yl)-1H-benzimidazole] |

same assay, conditions: Homo sapiens, HCT-116, HIF-Luciferase Assay, HCT-116 reporter cells, overnight at 1% oxygen; individual values

| IC50 [nM] | SMILES |
| --- | --- |
| 5 | Cc1ccc(Cn2nc(-c3nc(-c4ccc(C(C)(C)C)cc4)no3)cc2C)cc1 [Example 4, 3-(4-tert-butylphenyl)-5-[5-methyl-1-(4-methylbenzyl)-1H-pyrazol-3-yl]-1,2,4-oxadiazole] |
| 30 | Cc1cc(-c2nc(-c3ccc(OC(F)(F)F)cc3)no2)nn1Cc1ccc(C#N)cc1 [Example 121, 4-[(5-methyl-3-3-[4-(trifluoromethoxy)phenyl]-1,2,4-oxadiazol-5-yl-1H-pyrazol-1-yl)methyl]benzonitrile] |
| 30 | Cc1ccc(Cn2nc(-c3nc(-c4ccc(SC(F)(F)F)cc4)no3)cc2C)cc1 [Example 105, 5-[5-methyl-1-(4-methylbenzyl)-1H-pyrazol-3-yl]-3-4-[(trifluoromethyl)sulfanyl]phenyl-1,2,4-oxadiazole] |
| 30 | Cc1ccc(Cn2nc(-c3nc(-c4ccc(OCC(F)(F)F)cc4)no3)cc2C)cc1 [Example 18, 5-[5-Methyl-1-(4-methylbenzyl)-1H-pyrazol-3-yl]-3-[4-(2,2,2-trifluoroethoxy)phenyl]-1,2,4-oxadiazole] |

same assay, conditions: Homo sapiens, HCT-116, HIF-Luciferase Assay, HCT-116 reporter cells, overnight at 1% oxygen; potency groups

| IC50 [nM] | SMILES |
| --- | --- |
| ≤ 1000 | Cc1ccc(Cn2nc(-c3nc(-c4ccc(N5CCOCC5=O)cc4)no3)cc2C)cc1 [Example 26, 4-(4-{5-[5-methyl-1-(4-methylbenzyl)-1H-pyrazol-3-yl]-1,2,4-oxadiazol-3-yl}phenyl)morpholin-3-one] |
| ≤ 1000 | Cc1ccc(Cn2nc(-c3nc(-c4ccc(OC(C)C)cc4)no3)cc2C)cc1 [Example 20, 3-(4-Isopropoxyphenyl)-5-[5-methyl-1-(4-methylbenzyl)-1H-pyrazol-3-yl]-1,2,4-oxadiazole] |
| ≤ 1000 | Cc1ccc(Cn2nc(-c3nc4cc(-c5ccccc5F)ccc4o3)cc2C)cc1 [Example 35, 5-(2-fluorophenyl)-2-[5-methyl-1-(4-methylbenzyl)-1H-pyrazol-3-yl]-1,3-benzoxazole] |
| ≤ 1000 | Cc1ccc(Cn2nc(-c3nc4ccc(C5CCCCC5)cc4[nH]3)cc2C)cc1 [Example 51, 6-cyclohexyl-2-[5-methyl-1-(4-methylbenzyl)-1H-pyrazol-3-yl]-1H-benzimidazole] |
| ≤ 1000 | Cc1ccc(Cn2nc(-c3nc4ccc(-c5ccccc5Cl)cc4[nH]3)cc2C)cc1 [Example 62, 6-(2-chlorophenyl)-2-[5-methyl-1-(4-methylbenzyl)-1H-pyrazol-3-yl]-1H-benzimidazole] |
| ≤ 1000 | Cc1ccc(Cn2nc(-c3nc(-c4ccc(N5CCCC(C)C5)cc4)no3)cc2C)cc1 (stereo not drawn) [Example 6, 3-methyl-1-(4-{5-[5-methyl-1-(4-methylbenzyl)-1H-pyrazol-3-yl]-1,2,4-oxadiazol-3-yl}phenyl)piperidine] |
| 1000 to 10000 | Cc1ccc(C(C)n2nc(-c3nc(-c4ccc(Br)cc4)no3)cc2C)cc1 (stereo not drawn) [Example 8, 3-(4-bromophenyl)-5-{5-methyl-1-[1-(4-methylphenyl)ethyl]-1H-pyrazol-3-yl}-1,2,4-oxadiazole] |
| 1000 to 10000 | Cc1ccc(Cn2nc(-c3nc4c(C)cc(Br)cc4[nH]3)cc2C)cc1 [Example 57, 6-bromo-4-methyl-2-[5-methyl-1-(4-methylbenzyl)-1H-pyrazol-3-yl]-1H-benzimidazole] |
| ≤ 1000 | Cc1ccc(Cn2nc(-c3nc4cc(-c5ccccc5)ccc4o3)cc2C)cc1 [Example 29, 2-[5-Methyl-1-(4-methylbenzyl)-1H-pyrazol-3-yl]-5-phenyl-1,3-benzoxazole] |
| ≤ 1000 | Cc1ccc(Cn2nc(-c3nc(-c4ccc(N5CCOCC5)cc4)no3)cc2C)cc1 [Example 21, 4-(4-{5-[5-Methyl-1-(4-methylbenzyl)-1H-pyrazol-3-yl]-1,2,4-oxadiazol-3-yl}phenyl)morpholine] |
| ≤ 1000 | Cc1ccc(Cn2nc(-c3nc(-c4ccc(Br)cc4)no3)cc2C)cc1 [Example 3, 3-(4-bromophenyl)-5-[5-methyl-1-(4-methylbenzyl)-1H-pyrazol-3-yl]-1,2,4-oxadiazole] |
| ≤ 1000 | Cc1ccc(Cn2nc(-c3nc4cc(-c5cccc(Cl)c5)ccc4o3)cc2C)cc1 [Example 36, 5-(3-chlorophenyl)-2-[5-methyl-1-(4-methylbenzyl)-1H-pyrazol-3-yl]-1,3-benzoxazole] |
| ≤ 1000 | Cc1ccc(Cn2nc(-c3nc4cc5c(cc4[nH]3)OC(F)(F)O5)cc2C)cc1 [Example 55, 2,2-difluoro-6-[5-methyl-1-(4-methylbenzyl)-1H-pyrazol-3-yl]-5H-[1,3]dioxolo[4,5-f]benzimidazole] |
| ≤ 1000 | Cc1ccc(Cn2nc(-c3nc(-c4ccc(C(C)(C)C)cc4)no3)cc2C)cc1 [Example 4, 3-(4-tert-butylphenyl)-5-[5-methyl-1-(4-methylbenzyl)-1H-pyrazol-3-yl]-1,2,4-oxadiazole] |
| 1000 to 10000 | Cc1ccc(Cn2nc(-c3nc4c(C)cccc4[nH]3)cc2C)cc1 [Example 40, 4-methyl-2-[5-methyl-1-(4-methylbenzyl)-1H-pyrazol-3-yl]-1H-benzimidazole] |
| ≤ 1000 | COCC(=O)Nc1ccc(-c2noc(-c3cc(C)n(Cc4ccc(C)cc4)n3)n2)cc1 [Example 27, 2-methoxy-N-(4-{5-[5-methyl-1-(4-methylbenzyl)-1H-pyrazol-3-yl]-1,2,4-oxadiazol-3-yl}phenyl)acetamide] |
| ≤ 1000 | Cc1ccc(Cn2nc(-c3nc4ccc(C(=O)c5ccccc5)cc4[nH]3)cc2C)cc1 [Example 46, {2-[5-methyl-1-(4-methylbenzyl)-1H-pyrazol-3-yl]-1H-benzimidazol-6-yl}(phenyl)methanone] |

| IC50 [nM] | SMILES |
| --- | --- |
| ≤ 1000 | Cc1ccc(Cn2nc(-c3nc4ccc(-c5cccc(F)c5)cc4[nH]3)cc2C)cc1 [Example 61, 6-(3-fluorophenyl)-2-[5-methyl-1-(4-methylbenzyl)-1H-pyrazol-3-yl]-1H-benzimidazole] |
| ≤ 1000 | Cc1ccc(Cn2nc(-c3nc4cc5oc6ccccc6c5cc4[nH]3)cc2C)cc1 [Example 52, 2-[5-methyl-1-(4-methylbenzyl)-1H-pyrazol-3-yl]-1H-[1]benzofuro[2,3-f]benzimidazole] |
| ≤ 1000 | Cc1ccc(Cn2nc(-c3nc(-c4ccc(N5CCOC5=O)cc4)no3)cc2C)cc1 [Example 25, 3-(4-{5-[5-methyl-1-(4-methylbenzyl)-1H-pyrazol-3-yl]-1,2,4-oxadiazol-3-yl}phenyl)-1,3-oxazolidin-2-one] |
| 1000 to 10000 | Cc1ccc(Cn2nc(-c3nc(-c4cccnc4)no3)cc2C)cc1 [Example 16, 3-{5-[5-methyl-1-(4-methylbenzyl)-1H-pyrazol-3-yl]-1,2,4-oxadiazol-3-yl}pyridine] |
| ≤ 1000 | Cc1ccc(Cn2nc(-c3nc4ccc(-c5cccc(Cl)c5)cc4[nH]3)cc2C)cc1 [Example 63, 6-(3-chlorophenyl)-2-[5-methyl-1-(4-methylbenzyl)-1H-pyrazol-3-yl]-1H-benzimidazole] |
| ≤ 1000 | Cc1ccc(Cn2nc(-c3nc4ccc(OC(F)(F)F)cc4[nH]3)cc2C)cc1 [Example 58, 2-[5-methyl-1-(4-methylbenzyl)-1H-pyrazol-3-yl]-6-(trifluoromethoxy)-1H-benzimidazole] |
| 1000 to 10000 | Cc1ccc(Cn2nc(-c3nc4cc5cn[nH]c5cc4[nH]3)cc2C)cc1 [Example 48, 6-[5-methyl-1-(4-methylbenzyl)-1H-pyrazol-3-yl]-1,7-dihydroimidazo[4,5-f]indazole] |
| ≤ 1000 | Cc1ccc(Cn2nc(-c3nc4ccc(Oc5ccccc5)cc4o3)cc2C)cc1 [Example 30, 2-[5-methyl-1-(4-methylbenzyl)-1H-pyrazol-3-yl]-6-phenoxy-1,3-benzoxazole] |
| ≤ 1000 | Cc1ccc(Cn2nc(-c3nc4ccc(Br)cc4[nH]3)cc2C)cc1 [Example 37, 6-Bromo-2-[5-methyl-1-(4-methylbenzyl)-1H-pyrazol-3-yl]-1H-benzimidazole] |
| 1000 to 10000 | Cc1ccc(Cn2nc(-c3nc4ccc(Cl)cc4[nH]3)cc2C)cc1 [Example 41, 6-chloro-2-[5-methyl-1-(4-methylbenzyl)-1H-pyrazol-3-yl]-1H-benzimidazole] |
| ≤ 1000 | Cc1ccc(Cn2nc(-c3nc(-c4ccc(OCC(F)(F)F)cc4)no3)cc2C)cc1 [Example 18, 5-[5-Methyl-1-(4-methylbenzyl)-1H-pyrazol-3-yl]-3-[4-(2,2,2-trifluoroethoxy)phenyl]-1,2,4-oxadiazole] |
| 1000 to 10000 | Cc1ccc(Cn2nc(-c3nc4ccc(C#N)cc4[nH]3)cc2C)cc1 [Example 54, 2-[5-methyl-1-(4-methylbenzyl)-1H-pyrazol-3-yl]-1H-benzimidazole-6-carbonitrile] |
| 1000 to 10000 | Cc1ccc(Cn2nc(-c3nc4cc(Cl)c(F)cc4[nH]3)cc2C)cc1 [Example 56, 5-chloro-6-fluoro-2-[5-methyl-1-(4-methylbenzyl)-1H-pyrazol-3-yl]-1H-benzimidazole] |
| 1000 to 10000 | Cc1ccc(Cn2nc(-c3nc(-c4ccccc4)c(-c4ccccc4)[nH]3)cc2C)cc1 [Example 66, 3-(4,5-diphenyl-1H-imidazol-2-yl)-5-methyl-1-(4-methylbenzyl)-1H-pyrazole] |
| 1000 to 10000 | Cc1ccc(Cn2nc(-c3nc4ccc(C)cc4[nH]3)cc2C)cc1 [Example 39, 6-methyl-2-[5-methyl-1-(4-methylbenzyl)-1H-pyrazol-3-yl]-1H-benzimidazole] |
| ≤ 1000 | Cc1ccc(Cn2nc(-c3nc4ccc(C(F)(F)F)cc4[nH]3)cc2C)cc1 [Example 44, 2-[5-methyl-1-(4-methylbenzyl)-1H-pyrazol-3-yl]-6-(trifluoromethyl)-1H-benzimidazole] |
